In ChEMBL document CHEMBL1201862, “PubChem BioAssay data set” (2004):
Active and inactive are the calls of the source.

Tests used:
Type in all cases: functional
[1] = molecular target: Multidrug resistance protein CDR1 (Candida albicans, UniProt P43071); assay: inhibition of Nile Red efflux via Candida CDR1 – S. cerevisiae AD1-8u, singleplex, Cherry Pick1 hits, dose response (AID 588606)
[2] = molecular target: Serine/threonine-protein kinase pim-1 (Homo sapiens, UniProt P11309)
[3] = molecular target: Cell division cycle 7-related protein kinase (Homo sapiens, UniProt O00311);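 also: value obtained from a kinome-wide kinase panel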
[4] = molecular target: Homeodomain-interacting protein kinase 2 (Homo sapiens, UniProt Q9H2X6);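 also: measured within a kinome-wide kinase profiling panel, HIPK2 being one panel member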
[5] = molecular target: T1, Interleukin-1 receptor-associated kinase 4 (Homo sapiens, UniProt Q9NWZ3)
T1 sequence (Q9NWZ3 whole entry): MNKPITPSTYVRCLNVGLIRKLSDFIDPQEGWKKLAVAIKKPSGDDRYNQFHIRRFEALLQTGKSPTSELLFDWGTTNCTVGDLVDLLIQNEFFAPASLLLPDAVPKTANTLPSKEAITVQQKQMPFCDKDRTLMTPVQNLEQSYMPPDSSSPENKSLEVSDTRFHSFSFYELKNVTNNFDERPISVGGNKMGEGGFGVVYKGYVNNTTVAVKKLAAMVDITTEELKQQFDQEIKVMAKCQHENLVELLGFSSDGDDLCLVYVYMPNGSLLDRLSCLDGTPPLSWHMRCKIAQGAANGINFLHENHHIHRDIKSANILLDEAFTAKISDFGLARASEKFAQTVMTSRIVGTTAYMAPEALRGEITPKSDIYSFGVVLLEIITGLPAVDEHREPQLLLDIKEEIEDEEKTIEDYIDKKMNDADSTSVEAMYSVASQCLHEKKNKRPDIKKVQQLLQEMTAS

[6] = molecular target: Cyclin-dependent kinase 7 (Homo sapiens, UniProt P50613);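 also: value comes from a kinome-wide kinase profiling panel in which CDK7 is one member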
[7] = molecular target: Cyclin-dependent kinase 9 (Homo sapiens, UniProt P50750);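 also: value from the CDK9 entry of a kinome-spanning kinase panel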
[8] = molecular target: cAMP-dependent protein kinase catalytic subunit alpha (Homo sapiens, UniProt P17612)
[9] = molecular target: Mitogen-activated protein kinase kinase kinase kinase 4 (Homo sapiens, UniProt O95819)
[10] = molecular target: Cyclin-dependent kinase 5 (Homo sapiens, UniProt Q00535);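 also: CDK5 measured as one member of a kinase profiling panel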
[11] = molecular target: Cyclin-dependent kinase 8 (Homo sapiens, UniProt P49336); assay: Navigating the Kinome. Panel member name: CDK8
[12] = molecular target: Dual specificity protein kinase CLK4 (Homo sapiens, UniProt Q9HAZ1)
Sequence of Dual specificity protein kinase CLK4 (Q9HAZ1 whole entry): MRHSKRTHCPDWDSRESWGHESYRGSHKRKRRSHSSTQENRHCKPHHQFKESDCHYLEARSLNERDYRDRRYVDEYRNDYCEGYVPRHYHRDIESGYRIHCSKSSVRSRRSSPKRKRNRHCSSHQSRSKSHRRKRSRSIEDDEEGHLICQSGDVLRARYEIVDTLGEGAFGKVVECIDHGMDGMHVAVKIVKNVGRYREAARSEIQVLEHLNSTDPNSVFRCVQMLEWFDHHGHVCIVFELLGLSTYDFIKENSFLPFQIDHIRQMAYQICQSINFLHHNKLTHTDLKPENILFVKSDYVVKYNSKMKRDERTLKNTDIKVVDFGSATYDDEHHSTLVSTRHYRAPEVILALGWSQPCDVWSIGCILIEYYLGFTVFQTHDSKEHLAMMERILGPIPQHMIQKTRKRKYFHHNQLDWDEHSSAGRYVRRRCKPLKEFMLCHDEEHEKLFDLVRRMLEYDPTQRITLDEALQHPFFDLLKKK

Sequence of Cyclin-dependent kinase 8 (P49336 whole entry): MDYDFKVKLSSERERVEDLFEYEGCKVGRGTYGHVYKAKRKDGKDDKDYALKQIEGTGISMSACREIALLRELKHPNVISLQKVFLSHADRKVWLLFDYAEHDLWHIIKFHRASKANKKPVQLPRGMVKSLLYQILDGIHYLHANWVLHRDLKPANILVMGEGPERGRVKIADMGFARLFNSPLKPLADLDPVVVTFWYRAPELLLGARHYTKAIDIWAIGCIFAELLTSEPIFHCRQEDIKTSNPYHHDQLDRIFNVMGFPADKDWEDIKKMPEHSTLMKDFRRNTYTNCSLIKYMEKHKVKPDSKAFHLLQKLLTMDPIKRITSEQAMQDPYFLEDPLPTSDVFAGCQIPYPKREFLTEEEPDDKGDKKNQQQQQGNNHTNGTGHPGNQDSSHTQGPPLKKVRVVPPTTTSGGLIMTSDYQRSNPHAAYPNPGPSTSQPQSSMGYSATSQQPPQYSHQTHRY
Sequence of Homeodomain-interacting protein kinase 2 (Q9H2X6 whole entry): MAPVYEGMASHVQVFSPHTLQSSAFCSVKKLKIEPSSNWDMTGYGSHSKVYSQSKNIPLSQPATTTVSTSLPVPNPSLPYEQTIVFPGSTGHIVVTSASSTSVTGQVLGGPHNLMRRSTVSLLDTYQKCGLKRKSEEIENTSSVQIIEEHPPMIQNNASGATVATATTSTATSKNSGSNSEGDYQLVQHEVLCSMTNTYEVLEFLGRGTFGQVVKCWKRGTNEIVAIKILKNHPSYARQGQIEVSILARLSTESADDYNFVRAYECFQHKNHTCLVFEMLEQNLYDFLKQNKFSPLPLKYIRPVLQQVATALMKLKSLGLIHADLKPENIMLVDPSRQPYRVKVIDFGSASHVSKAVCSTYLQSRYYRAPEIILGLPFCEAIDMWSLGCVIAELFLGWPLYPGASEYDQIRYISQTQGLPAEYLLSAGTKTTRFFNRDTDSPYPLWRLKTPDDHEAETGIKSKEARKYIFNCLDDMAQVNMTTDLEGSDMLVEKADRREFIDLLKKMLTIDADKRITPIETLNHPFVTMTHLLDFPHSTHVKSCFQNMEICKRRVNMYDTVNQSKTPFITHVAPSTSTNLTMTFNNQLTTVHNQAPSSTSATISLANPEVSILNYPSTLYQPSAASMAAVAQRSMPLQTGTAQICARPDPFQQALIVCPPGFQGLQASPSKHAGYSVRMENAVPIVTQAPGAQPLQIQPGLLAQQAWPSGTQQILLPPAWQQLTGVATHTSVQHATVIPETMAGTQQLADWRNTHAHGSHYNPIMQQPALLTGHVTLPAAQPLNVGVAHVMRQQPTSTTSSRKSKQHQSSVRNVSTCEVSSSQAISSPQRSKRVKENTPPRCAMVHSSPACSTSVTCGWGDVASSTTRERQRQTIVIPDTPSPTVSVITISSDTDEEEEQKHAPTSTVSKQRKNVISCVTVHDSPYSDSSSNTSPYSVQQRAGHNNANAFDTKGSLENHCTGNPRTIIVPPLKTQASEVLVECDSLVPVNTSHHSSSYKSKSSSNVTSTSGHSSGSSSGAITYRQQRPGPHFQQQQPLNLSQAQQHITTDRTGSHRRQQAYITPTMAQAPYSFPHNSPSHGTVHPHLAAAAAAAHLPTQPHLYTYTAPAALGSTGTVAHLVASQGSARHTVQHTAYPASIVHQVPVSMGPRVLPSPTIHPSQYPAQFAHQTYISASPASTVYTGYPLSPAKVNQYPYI
Sequence of Cell division cycle 7-related protein kinase (O00311 whole entry): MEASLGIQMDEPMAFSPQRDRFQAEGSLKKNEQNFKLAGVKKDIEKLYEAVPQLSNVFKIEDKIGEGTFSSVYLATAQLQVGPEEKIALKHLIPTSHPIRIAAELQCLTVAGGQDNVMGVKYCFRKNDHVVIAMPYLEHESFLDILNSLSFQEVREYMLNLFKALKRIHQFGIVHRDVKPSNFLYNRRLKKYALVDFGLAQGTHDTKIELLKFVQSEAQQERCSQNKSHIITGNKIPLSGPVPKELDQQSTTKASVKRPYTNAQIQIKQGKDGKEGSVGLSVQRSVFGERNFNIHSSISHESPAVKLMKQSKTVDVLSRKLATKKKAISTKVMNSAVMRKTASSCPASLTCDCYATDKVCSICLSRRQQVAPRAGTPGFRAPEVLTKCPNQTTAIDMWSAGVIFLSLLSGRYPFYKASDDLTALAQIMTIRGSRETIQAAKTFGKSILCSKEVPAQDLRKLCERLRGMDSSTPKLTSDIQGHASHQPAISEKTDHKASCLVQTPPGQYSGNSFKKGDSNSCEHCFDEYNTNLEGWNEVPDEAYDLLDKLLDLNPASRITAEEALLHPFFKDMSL
Sequence of Serine/threonine-protein kinase pim-1 (P11309 whole entry): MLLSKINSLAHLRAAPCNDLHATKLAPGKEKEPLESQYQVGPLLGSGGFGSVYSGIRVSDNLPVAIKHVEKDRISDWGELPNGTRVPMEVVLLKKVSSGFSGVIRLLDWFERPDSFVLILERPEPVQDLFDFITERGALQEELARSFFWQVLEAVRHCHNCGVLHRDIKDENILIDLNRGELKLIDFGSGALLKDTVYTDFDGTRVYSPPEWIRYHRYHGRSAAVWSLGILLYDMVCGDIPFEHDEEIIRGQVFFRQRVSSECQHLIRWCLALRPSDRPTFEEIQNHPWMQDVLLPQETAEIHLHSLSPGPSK
Sequence of Multidrug resistance protein CDR1 (P43071 whole entry, looked up): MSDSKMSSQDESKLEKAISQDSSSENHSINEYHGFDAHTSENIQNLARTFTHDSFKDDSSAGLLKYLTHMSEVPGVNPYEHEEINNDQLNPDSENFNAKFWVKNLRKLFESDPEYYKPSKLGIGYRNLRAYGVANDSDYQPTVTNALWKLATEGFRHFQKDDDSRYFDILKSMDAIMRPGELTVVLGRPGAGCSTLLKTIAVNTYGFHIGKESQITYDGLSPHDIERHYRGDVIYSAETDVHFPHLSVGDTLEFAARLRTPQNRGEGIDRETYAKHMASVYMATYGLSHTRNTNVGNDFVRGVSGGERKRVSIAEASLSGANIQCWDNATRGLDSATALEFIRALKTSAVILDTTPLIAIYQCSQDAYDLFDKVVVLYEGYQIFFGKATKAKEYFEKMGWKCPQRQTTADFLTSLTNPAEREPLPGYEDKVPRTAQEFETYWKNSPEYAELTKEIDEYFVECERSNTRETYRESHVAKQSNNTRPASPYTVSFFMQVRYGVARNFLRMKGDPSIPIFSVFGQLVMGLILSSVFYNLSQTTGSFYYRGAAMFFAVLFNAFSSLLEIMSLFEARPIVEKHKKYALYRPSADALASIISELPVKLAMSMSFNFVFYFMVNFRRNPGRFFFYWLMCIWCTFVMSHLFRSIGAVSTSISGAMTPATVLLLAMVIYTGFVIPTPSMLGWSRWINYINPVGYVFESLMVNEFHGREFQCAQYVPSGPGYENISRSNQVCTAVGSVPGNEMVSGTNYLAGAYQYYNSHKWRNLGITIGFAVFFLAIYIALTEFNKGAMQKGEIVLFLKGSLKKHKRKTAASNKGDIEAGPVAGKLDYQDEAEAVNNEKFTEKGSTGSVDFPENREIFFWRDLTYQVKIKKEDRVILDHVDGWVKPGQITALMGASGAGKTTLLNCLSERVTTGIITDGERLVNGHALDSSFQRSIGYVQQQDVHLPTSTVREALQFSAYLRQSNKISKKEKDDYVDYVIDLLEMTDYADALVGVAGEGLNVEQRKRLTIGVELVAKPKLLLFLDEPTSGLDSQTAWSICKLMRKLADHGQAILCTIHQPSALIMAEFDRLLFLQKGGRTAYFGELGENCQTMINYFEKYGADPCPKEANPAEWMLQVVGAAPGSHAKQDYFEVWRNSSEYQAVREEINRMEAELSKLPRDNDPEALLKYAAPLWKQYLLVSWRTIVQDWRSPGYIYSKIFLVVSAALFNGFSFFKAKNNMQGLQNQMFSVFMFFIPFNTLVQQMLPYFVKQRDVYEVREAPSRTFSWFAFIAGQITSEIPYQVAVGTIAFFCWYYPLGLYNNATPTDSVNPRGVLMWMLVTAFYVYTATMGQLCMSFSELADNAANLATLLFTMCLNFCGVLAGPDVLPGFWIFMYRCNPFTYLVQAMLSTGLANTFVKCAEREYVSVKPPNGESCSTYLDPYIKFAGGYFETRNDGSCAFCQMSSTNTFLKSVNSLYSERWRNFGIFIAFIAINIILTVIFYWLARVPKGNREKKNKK
Sequence of Cyclin-dependent kinase 5 (Q00535 whole entry): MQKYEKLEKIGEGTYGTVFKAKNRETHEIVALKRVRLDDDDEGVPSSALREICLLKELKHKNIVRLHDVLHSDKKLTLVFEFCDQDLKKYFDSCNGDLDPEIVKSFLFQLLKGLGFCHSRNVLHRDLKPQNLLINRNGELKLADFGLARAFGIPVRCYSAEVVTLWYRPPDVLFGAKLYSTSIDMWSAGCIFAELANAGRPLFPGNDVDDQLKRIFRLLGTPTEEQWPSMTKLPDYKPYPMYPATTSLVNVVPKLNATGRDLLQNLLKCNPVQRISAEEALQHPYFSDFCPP

COc1cc2c(cc1NC(=O)CSc1nnc(Cc3cccs3)n1Cc1ccco1)oc1ccccc12
active: EC50 [1] 11 nM

NC(=O)c1ccccc1Nc1nc(Nc2ccccc2)ncc1C(F)(F)F
active: Ki [2] 2510 nM | Ki [3] 5.01 nM | Ki [4] 3.98 nM | Ki [5] 39.8 nM | Ki [6] 5.01 nM | Ki [7] 39.8 nM | Ki [8] 200 nM | Ki [9] 25.1 nM

CC(C)(O)c1c(-c2ccccc2)n[nH]c(=O)c1N
active: Ki [10] 50100 nM | Ki [11] 50100 nM | Ki [12] 31600 nM
